Assay results: US11485701B2, “Insect repellent compounds and compositions, and methods thereof” (Iowa State University Research Foundation, Inc., priority 2016, dated 2022)
Where two headings read alike, the source gives them in different places.

System: Northern house mosquitoes (Culex pipiens)
Test: Long-term spatial repellency, static air repellency chamber, filter papers air-dried 5 hours
Assay type: in vivo
Details: Culex pipiens, 1 mL of 0.5% solution in acetone, air-dried 5 hours
Procedure, shortened: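 Adult female Culex pipiens, 5–7 days post-emergence, held at 27 °C, 80% RH and 16:8 light:dark, about 20 per replicate in a 9 × 60 cm glass static-air chamber. Filter paper treated with 0.5% compound in acetone and air-dried 5 h is placed at one end; acetone-only papers are the control. Percentage spatial repellency is scored from mosquito distribution at 15–150 min, 4 replicates.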

Compound `CC(C)=CCCC(C)CC(=O)OCC(C)O` (stereo not drawn) [Compound 2144, 2-hydroxypropyl citronellate] has a pest or weed control at 0.5 % (0.25 h, 15 min, read-out: Long-term Percentage repellency 15 min) of 12.5%, a pest or weed control at 0.5 % (1.5 h, 90 min, read-out: Long-term Percentage repellency 90 min) of 20% and a pest or weed control at 0.5 % (2.5 h, 150 min, read-out: Long-term Percentage repellency 150 min) of 35%.
